This assay relates to potassium ion channel current of the DRG neurons. It is filed as cell-based, SD rats. Conditions: 5 mM.

Consider one compound from patent US10858406B2 (priority 2014, dated 2020).

Consider `Nc1ccncc1` [4AP, 4-aminopyridine], for which the Current inhibition rate is on record as 0.338 and the “Current recorded after loading” value came to 0.9766 nA.
